Assay results published in PubChem BioAssay AID1963976 (Molecular Pharmacology Branch, DTP, NCI, 2024).
One block for each compound: values may come before it.

System: 435261-313-R-J1-PDC tumor spheroid viability
Test: Anticancer human tumor 435261-313-R-J1-PDC patient-derived colon adenocarcinoma cell line growth inhibition [PI3K]
Settings: spheroids with HUVEC and MSC; for IC50: curve of first compound; for viability, T/C: stronger effect = lower value
In short: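 Multi-cell spheroids combine tumor cells with HUVEC and human MSCs, treated with targeted agents alone or with inavolisib, alpelisib, duvelisib or copanlisib. Concentrations fall in half-log steps from at or near clinical Cmax, or from 10 microM where Cmax is unknown; viability read-out.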

[1] = second compound 0.0316 µM, first compound 0.000316 µM
[2] = second compound 0.0316 µM, first compound 0.001 µM
[3] = second compound 0.0316 µM, first compound 0.00316 µM
[4] = second compound 0.0316 µM, first compound 0.01 µM
[5] = second compound 0.0316 µM, first compound 0.0316 µM
[6] = second compound 0.0316 µM, first compound 0.1 µM
[7] = second compound 0.1 µM, first compound 0.000316 µM
[8] = second compound 0.1 µM, first compound 0.001 µM
[9] = second compound 0.1 µM, first compound 0.00316 µM
[10] = second compound 0.1 µM, first compound 0.01 µM
[11] = second compound 0.1 µM, first compound 0.0316 µM
[12] = second compound 0.1 µM, first compound 0.1 µM
[13] = second compound 0.316 µM, first compound 0.000316 µM
[14] = second compound 0.316 µM, first compound 0.001 µM
[15] = second compound 0.316 µM, first compound 0.00316 µM
[16] = second compound 0.316 µM, first compound 0.01 µM
[17] = second compound 0.316 µM, first compound 0.0316 µM
[18] = second compound 0.316 µM, first compound 0.1 µM
[19] = second compound 1 µM, first compound 0.000316 µM
[20] = second compound 1 µM, first compound 0.001 µM
[21] = second compound 1 µM, first compound 0.00316 µM
[22] = second compound 1 µM, first compound 0.01 µM
[23] = second compound 1 µM, first compound 0.0316 µM
[24] = second compound 1 µM, first compound 0.1 µM
[25] = second compound 3.16 µM, first compound 0.000316 µM
[26] = second compound 3.16 µM, first compound 0.001 µM
[27] = second compound 3.16 µM, first compound 0.00316 µM
[28] = second compound 3.16 µM, first compound 0.01 µM
[29] = second compound 3.16 µM, first compound 0.0316 µM
[30] = second compound 3.16 µM, first compound 0.1 µM
[31] = second compound 10 µM, first compound 0.000316 µM
[32] = second compound 10 µM, first compound 0.001 µM
[33] = second compound 10 µM, first compound 0.00316 µM
[34] = second compound 10 µM, first compound 0.01 µM
[35] = second compound 10 µM, first compound 0.0316 µM
[36] = second compound 10 µM, first compound 0.1 µM
[37] = second compound 0.0316 µM, first compound 0.316 µM
[38] = second compound 0.0316 µM, first compound 1 µM
[39] = second compound 0.0316 µM, first compound 3.16 µM
[40] = second compound 0.0316 µM, first compound 10 µM
[41] = second compound 0.1 µM, first compound 0.316 µM
[42] = second compound 0.1 µM, first compound 1 µM
[43] = second compound 0.1 µM, first compound 3.16 µM
[44] = second compound 0.1 µM, first compound 10 µM
[45] = second compound 0.316 µM, first compound 0.316 µM
[46] = second compound 0.316 µM, first compound 1 µM
[47] = second compound 0.316 µM, first compound 3.16 µM
[48] = second compound 0.316 µM, first compound 10 µM
[49] = second compound 1 µM, first compound 0.316 µM
[50] = second compound 1 µM, first compound 1 µM
[51] = second compound 1 µM, first compound 3.16 µM
[52] = second compound 1 µM, first compound 10 µM
[53] = second compound 3.16 µM, first compound 0.316 µM
[54] = second compound 3.16 µM, first compound 1 µM
[55] = second compound 3.16 µM, first compound 3.16 µM
[56] = second compound 3.16 µM, first compound 10 µM
[57] = second compound 10 µM, first compound 0.316 µM
[58] = second compound 10 µM, first compound 1 µM
[59] = second compound 10 µM, first compound 3.16 µM
[60] = second compound 10 µM, first compound 10 µM
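Also: spheroids exposed to compounds for 7 days.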

- IC50 (second compound 0.0316 µM): > 100 nM
- IC50 (second compound 0.1 µM): > 100 nM
- IC50 (second compound 0.316 µM): > 100 nM
- IC50 (second compound 1 µM): > 100 nM
- IC50 (second compound 3.16 µM): > 100 nM
- IC50 (second compound 10 µM): 34.5 nM
Structure (SMILES): CC(=O)c1c(C)c2cnc(Nc3ccc(N4CCNCC4)cn3)nc2n(C2CCCC2)c1=O + CC(Nc1ncnc2nc[nH]c12)c1cc2cccc(Cl)c2c(=O)n1-c1ccccc1
- viability, T/C [1]: 101%
- viability, T/C [2]: 125%
- viability, T/C [3]: 74.8%
- viability, T/C [4]: 94%
- viability, T/C [5]: 107%
- viability, T/C [6]: 84.1%
- viability, T/C [7]: 77.4%
- viability, T/C [8]: 84%
- viability, T/C [9]: 94.5%
- viability, T/C [10]: 101%
- viability, T/C [11]: 106%
- viability, T/C [12]: 64.9%
- viability, T/C [13]: 105%
- viability, T/C [14]: 72.7%
- viability, T/C [15]: 101%
- viability, T/C [16]: 90.1%
- viability, T/C [17]: 119%
- viability, T/C [18]: 69%
- viability, T/C [19]: 81.7%
- viability, T/C [20]: 57.1%
- viability, T/C [21]: 56.6%
- viability, T/C [22]: 92.3%
- viability, T/C [23]: 86.6%
- viability, T/C [24]: 62%
- viability, T/C [25]: 52.9%
- viability, T/C [26]: 79%
- viability, T/C [27]: 40.8%
- viability, T/C [28]: 63.1%
- viability, T/C [29]: 63.3%
- viability, T/C [30]: 41.3%
- viability, T/C [31]: 44.5%
- viability, T/C [32]: 54%
- viability, T/C [33]: 48.2%
- viability, T/C [34]: 56.1%
- viability, T/C [35]: 54.6%
- viability, T/C [36]: 32.2%

- IC50 (second compound 0.0316 µM): > 10000 nM
- IC50 (second compound 0.1 µM): > 10000 nM
- IC50 (second compound 0.316 µM): > 10000 nM
- IC50 (second compound 1 µM): > 10000 nM
- IC50 (second compound 3.16 µM): > 10000 nM
- IC50 (second compound 10 µM): < 31.6 nM
Structure (SMILES): CC1(C)CCC(CN2CCN(c3ccc(C(=O)NS(=O)(=O)c4ccc(NCC5CCOCC5)c([N+](=O)[O-])c4)c(Oc4cnc5[nH]ccc5c4)c3)CC2)=C(c2ccc(Cl)cc2)C1 + CC(Nc1ncnc2nc[nH]c12)c1cc2cccc(Cl)c2c(=O)n1-c1ccccc1
- viability, T/C [5]: 79.5%
- viability, T/C [6]: 92%
- viability, T/C [37]: 71.5%
- viability, T/C [38]: 80%
- viability, T/C [39]: 86.9%
- viability, T/C [40]: 95%
- viability, T/C [11]: 66.1%
- viability, T/C [12]: 78.2%
- viability, T/C [41]: 81.3%
- viability, T/C [42]: 71.6%
- viability, T/C [43]: 94.5%
- viability, T/C [44]: 84.9%
- viability, T/C [17]: 77.5%
- viability, T/C [18]: 100%
- viability, T/C [45]: 87.2%
- viability, T/C [46]: 77.3%
- viability, T/C [47]: 77.4%
- viability, T/C [48]: 52.2%
- viability, T/C [23]: 87.6%
- viability, T/C [24]: 66.1%
- viability, T/C [49]: 66.4%
- viability, T/C [50]: 64%
- viability, T/C [51]: 73.2%
- viability, T/C [52]: 46.6%
- viability, T/C [29]: 65.3%
- viability, T/C [30]: 72.6%
- viability, T/C [53]: 87.2%
- viability, T/C [54]: 72.3%
- viability, T/C [55]: 77%
- viability, T/C [56]: 76.7%
- viability, T/C [35]: 41.6%
- viability, T/C [36]: 60.8%
- viability, T/C [57]: 32.7%
- viability, T/C [58]: 62.9%
- viability, T/C [59]: 50.3%
- viability, T/C [60]: 43.9%

- IC50 (second compound 0.0316 µM): > 10000 nM
- IC50 (second compound 0.1 µM): > 10000 nM
- IC50 (second compound 0.316 µM): > 10000 nM
- IC50 (second compound 1 µM): > 10000 nM
- IC50 (second compound 3.16 µM): > 10000 nM
- IC50 (second compound 10 µM): 3520 nM
Structure (SMILES): C[C@@H](NC(=O)c1ncnc(N)c1Cl)c1ncc(C(=O)Nc2cc(C(F)(F)F)c(Cl)cn2)s1 + CC(Nc1ncnc2nc[nH]c12)c1cc2cccc(Cl)c2c(=O)n1-c1ccccc1
- viability, T/C [5]: 158%
- viability, T/C [6]: 182%
- viability, T/C [37]: 124%
- viability, T/C [38]: 145%
- viability, T/C [39]: 153%
- viability, T/C [40]: 118%
- viability, T/C [11]: 128%
- viability, T/C [12]: 172%
- viability, T/C [41]: 153%
- viability, T/C [42]: 144%
- viability, T/C [43]: 147%
- viability, T/C [44]: 104%
- viability, T/C [17]: 112%
- viability, T/C [18]: 150%
- viability, T/C [45]: 135%
- viability, T/C [46]: 145%
- viability, T/C [47]: 150%
- viability, T/C [48]: 64.8%
- viability, T/C [23]: 146%
- viability, T/C [24]: 146%
- viability, T/C [49]: 147%
- viability, T/C [50]: 175%
- viability, T/C [51]: 144%
- viability, T/C [52]: 96.1%
- viability, T/C [29]: 119%
- viability, T/C [30]: 141%
- viability, T/C [53]: 111%
- viability, T/C [54]: 148%
- viability, T/C [55]: 91.4%
- viability, T/C [56]: 44.6%
- viability, T/C [35]: 72.8%
- viability, T/C [36]: 131%
- viability, T/C [57]: 88.7%
- viability, T/C [58]: 93.2%
- viability, T/C [59]: 51%
- viability, T/C [60]: 39.9%

- IC50 (second compound 0.0316 µM): > 100 nM
- IC50 (second compound 0.1 µM): > 100 nM
- IC50 (second compound 0.316 µM): 76.3 nM
- IC50 (second compound 1 µM): > 100 nM
- IC50 (second compound 3.16 µM): > 100 nM
- IC50 (second compound 10 µM): 0.725 nM
Structure (SMILES): Cn1ncnc1[C@H]1c2n[nH]c(=O)c3cc(F)cc(c23)N[C@@H]1c1ccc(F)cc1 + CC(Nc1ncnc2nc[nH]c12)c1cc2cccc(Cl)c2c(=O)n1-c1ccccc1
- viability, T/C [1]: 116%
- viability, T/C [2]: 80.9%
- viability, T/C [3]: 76.1%
- viability, T/C [4]: 82.5%
- viability, T/C [5]: 59.2%
- viability, T/C [6]: 53.5%
- viability, T/C [7]: 90.6%
- viability, T/C [8]: 124%
- viability, T/C [9]: 104%
- viability, T/C [10]: 106%
- viability, T/C [11]: 85.2%
- viability, T/C [12]: 69.9%
- viability, T/C [13]: 81%
- viability, T/C [14]: 54.3%
- viability, T/C [15]: 71.4%
- viability, T/C [16]: 78.3%
- viability, T/C [17]: 62.1%
- viability, T/C [18]: 45.6%
- viability, T/C [19]: 80.3%
- viability, T/C [20]: 59.1%
- viability, T/C [21]: 80.9%
- viability, T/C [22]: 82.1%
- viability, T/C [23]: 56.6%
- viability, T/C [24]: 52.7%
- viability, T/C [25]: 53.3%
- viability, T/C [26]: 57.3%
- viability, T/C [27]: 75.8%
- viability, T/C [28]: 49.5%
- viability, T/C [29]: 71.1%
- viability, T/C [30]: 56.2%
- viability, T/C [31]: 58%
- viability, T/C [32]: 50.8%
- viability, T/C [33]: 34.9%
- viability, T/C [34]: 35.4%
- viability, T/C [35]: 39%
- viability, T/C [36]: 33.3%
